Nine molecules from patent EP0377642B1, “HERBICIDES FOR WEED CONTROL IN RICE” (E.I. DU PONT DE NEMOURS AND COMPANY, priority 1987, dated 1989) can be followed below.

What all share (assay type): in vivo
The subject of series [1] is rice. Description: Effects in combination with Thiobencarb and Bensulfuron Methyl on rice growth (Table 22). The settings on record: var. Koshihikari, applied 7 days after transplanting, rated 21 days after application. The source says:
(§1) Methyl 2-[[[[(4-methoxy-6-methyl-1,3,5-triazin-2-yl)amino]carbonyl]amino]sulfonyl]benzoate (Compound 1) and mixtures thereof with other compounds were applied as a spray (using a hand sprayer) to rice (either transplanted or direct seeded) in several rice growing areas in Southeast Asia and in the U.S. Tables 1-28 contain the results of these tests and clearly exemplify the utility of this invention. The details of each application are included in the appropriate table. [drawing 2]

The test system of a further series is FIMBRISTYLIS MILIACEA
Kind of series: Herbicidal efficacy alone and with 2,4-D in Thailand (Table 3). The settings on record: 600 GAI/HA, 6 weeks after application.
Text: as §1

The next series relates to weeds. Kind of series: Greenhouse test of Compound 1 and Compound 2, herbicidal efficacy (Table 26). As to conditions: rated 24 days after treatment; for % CONTROL OR INJURY AT: Alisma triviale; for % CONTROL OR INJURY AP: Alternanthera philoxeroides; for % CONTROL OR INJURY CD: Cyperus difformis; for % CONTROL OR INJURY SR: Sagittaria rigida.
Text: as §1

The subject of series [2] is transplanted rice (var. Nihonbare). Kind of series: Crop tolerance of transplanted rice, combinations with Thiobencarb, Dimepiperate, Esprocarb and Dymron (Table 15).
Text: as §1

Series [3] deals with WEED. Description: Effects in combination with Bensulfuron Methyl and Thiobencarb or Pretilachlor on weed control (Table 24). The settings on record: scale 0 to 10, treated at 1.0 leaf stage, evaluated four weeks later; for WEED CONTROL RATINGS CD: Cyperus difformis; for WEED CONTROL RATINGS CS: Cyperus serotinus; for WEED CONTROL RATINGS EO: Echinochloa oryzicola; for WEED CONTROL RATINGS BL: Lindernia pyxidaria; for WEED CONTROL RATINGS MV: Monochoria vaginalis; for WEED CONTROL RATINGS SP: Sagittaria pygmaea; for WEED CONTROL RATINGS SJ: Scirpus juncoides.
Text: as §1

Series [4] relates to WEED. Kind of series: Effects in combination with Bensulfuron Methyl and Thiobencarb or Pretilachlor on weed control (Table 25). As to conditions: scale 0 to 10, treated at 2.0 leaf stage, evaluated four weeks later; for WEED CONTROL RATINGS CD: Cyperus difformis; for WEED CONTROL RATINGS CS: Cyperus serotinus; for WEED CONTROL RATINGS EO: Echinochloa oryzicola; for WEED CONTROL RATINGS BL: Lindernia pyxidaria; for WEED CONTROL RATINGS MV: Monochoria vaginalis; for WEED CONTROL RATINGS SP: Sagittaria pygmaea; for WEED CONTROL RATINGS SJ: Scirpus juncoides.
Text: as §1

The subject of series [5] is rice. Description: Effects in combination with Bensulfuron Methyl and Thiobencarb or Pretilachlor on rice growth (Table 23). As to conditions: var. Koshihikari, applied 7 days after transplanting, rated 21 days after application.
Text: as §1

Setting [6] is: 2100 GAI/HA, 15 days after application.

For `COC(=O)c1ccccc1CS(=O)(=O)NC(=O)Nc1nc(OC)cc(OC)n1`, in the series on rice [1] (rate 75 g ai/ha), the “CROP TOLERANCE DW (Dry weight relative to untreated check)” value is 76%, the “CROP TOLERANCE PH (Plant height relative to untreated check)” value stood at 84% and the “CROP TOLERANCE VA (Visual crop injury)” value came out at 3.5%.

For `CCCCOC(=O)COc1ccc(Cl)cc1Cl` [2,4-D (BUTYL ESTER), reference compound], the “FIMBRISTYLIS MILIACEA CONTROL” value amounted to 94% in the series with FIMBRISTYLIS MILIACEA (applied 7 DAS), 98% in the series with FIMBRISTYLIS MILIACEA (applied 14 DAS), 60% in the series with FIMBRISTYLIS MILIACEA (applied 21 DAS) and 43% with FIMBRISTYLIS MILIACEA (applied 28 DAS).

Turning to `COC(=O)c1ccccc1S(=O)(=O)NC(=O)Nc1nc(OC)cc(OC)n1` [Compound 2, methyl 2-[[[[(4,6-dimethoxy-2-pyrimidinyl)amino]carbonyl]amino]sulfonyl]benzoate], in the series on weeds (rate 1 g ai/ha), the “% CONTROL OR INJURY AT” value was 95%, the “% CONTROL OR INJURY AP” value is reported as 0%, the “% CONTROL OR INJURY CD” value came out at 70% and the “% CONTROL OR INJURY SR” value is given as 0%. Also, in the series with weeds (rate 2 g ai/ha), the “% CONTROL OR INJURY AT” value worked out at 95%, the “% CONTROL OR INJURY AP” value was 0%, the “% CONTROL OR INJURY CD” value is reported as 80% and the “% CONTROL OR INJURY SR” value was found to be 0%. Also, in the series on weeds (rate 4 g ai/ha), the “% CONTROL OR INJURY AT” value was found to be 95%, the “% CONTROL OR INJURY AP” value is listed as 20%, the “% CONTROL OR INJURY CD” value was 100% and the “% CONTROL OR INJURY SR” value came out at 80%. In the series with weeds (rate 8 g ai/ha), the “% CONTROL OR INJURY AT” value is 95%, the “% CONTROL OR INJURY AP” value is 30%, the “% CONTROL OR INJURY CD” value is 100% and the “% CONTROL OR INJURY SR” value came out at 80%.

As for `CC(C)(SC(=O)N1CCCCC1)c1ccccc1` [Dimepiperate, S-1-methyl-1-phenylethylpiperidine-1-carbothioate], in series [2] (in vivo), the “CROP TOLERANCE (Nihonbare) PH, plant height relative to untreated check” value turned out to be 102% and the “CROP TOLERANCE (Nihonbare) VA, visual crop injury” value (“CROP TOLERANCE (Nihonbare) VA” below) is reported as 0%.

With `Cc1ccc(NC(=O)NC(C)(C)c2ccccc2)cc1` [Dymron, 1-(α,α-dimethylbenzyl)-3-p-tolylurea], in series [2] (setting [6]), the “CROP TOLERANCE (Nihonbare) DW, dry weight relative to untreated check” value was found to be 107%; the “CROP TOLERANCE (Nihonbare) PH, plant height relative to untreated check” value was determined as 102%; the “CROP TOLERANCE (Nihonbare) VA” value stood at 0%.

For `CCN(C(=O)SCc1ccccc1)C(C)C(C)C` (centres unmarked) [Esprocarb, S-benzyl-N-ethyl-N-(1,2-dimethyl)-propylthiol carbamate], in series [2] (setting [6]), the “CROP TOLERANCE (Nihonbare) DW, dry weight relative to untreated check” value is on record as 94%; the “CROP TOLERANCE (Nihonbare) PH, plant height relative to untreated check” value was found to be 92%; the “CROP TOLERANCE (Nihonbare) VA” value was 0%.

As for `CCCOCCN(C(=O)CCl)c1c(CC)cccc1CC` [PRETILACHLOR], in the series on WEED [3] (rate 600 g ai/ha), the “WEED CONTROL RATINGS CD” value is 10, the “WEED CONTROL RATINGS CS” value is recorded as 3, the “WEED CONTROL RATINGS EO” value amounted to 10 and the “WEED CONTROL RATINGS BL” value stood at 10. Moreover, in the series on WEED [3] (rate 600 g ai/ha), the “WEED CONTROL RATINGS MV” value is 5, the “WEED CONTROL RATINGS SP” value was found to be 3 and the “WEED CONTROL RATINGS SJ” value worked out at 5. Further, in the series with WEED [4] (rate 600 g ai/ha), the “WEED CONTROL RATINGS CD” value is recorded as 10, the “WEED CONTROL RATINGS CS” value is recorded as 3, the “WEED CONTROL RATINGS EO” value was 7 and the “WEED CONTROL RATINGS BL” value came out at 7. Also, in the series with WEED [4] (rate 600 g ai/ha), the “WEED CONTROL RATINGS MV” value was found to be 3, the “WEED CONTROL RATINGS SP” value is listed as 6 and the “WEED CONTROL RATINGS SJ” value was 2.

With `CCCOCCN(C(=O)CCl)c1c(CC)cccc1CC` [Pretilachlor], in the series with rice [5] (rate 600 g ai/ha), the “CROP TOLERANCE DW (Dry weight relative to untreated check)” value is 71%, the “CROP TOLERANCE PH (Plant height relative to untreated check)” value was 87% and the “CROP TOLERANCE VA (Visual crop injury)” value is on record as 3%.

With `CCN(CC)C(=O)SCc1ccc(Cl)cc1` [Thiobencarb, S-[(4-chlorophenyl)methyl]diethylcarbamothioate, reference compound], in the series on rice [1] (rate 2100 g ai/ha), the “CROP TOLERANCE DW (Dry weight relative to untreated check)” value is listed as 99%, the “CROP TOLERANCE PH (Plant height relative to untreated check)” value was determined as 99% and the “CROP TOLERANCE VA (Visual crop injury)” value is recorded as 0%. Moreover, in the series on rice [5] (rate 2100 g ai/ha), the “CROP TOLERANCE DW (Dry weight relative to untreated check)” value amounted to 81%, the “CROP TOLERANCE PH (Plant height relative to untreated check)” value is reported as 93% and the “CROP TOLERANCE VA (Visual crop injury)” value amounted to 2%. For the same molecule, in the series on WEED [3] (rate 2100 g ai/ha), the “WEED CONTROL RATINGS CD” value amounted to 10, the “WEED CONTROL RATINGS CS” value is reported as 9, the “WEED CONTROL RATINGS EO” value amounted to 10 and the “WEED CONTROL RATINGS BL” value stood at 9. Besides, in the series on WEED [3] (rate 2100 g ai/ha), the “WEED CONTROL RATINGS MV” value was 10, the “WEED CONTROL RATINGS SP” value worked out at 0 and the “WEED CONTROL RATINGS SJ” value turned out to be 7. In the series on WEED [4] (rate 2100 g ai/ha), the “WEED CONTROL RATINGS CD” value stood at 10, the “WEED CONTROL RATINGS CS” value worked out at 2, the “WEED CONTROL RATINGS EO” value is recorded as 6 and the “WEED CONTROL RATINGS BL” value is listed as 9.5. In addition, in the series with WEED [4] (rate 2100 g ai/ha), the “WEED CONTROL RATINGS MV” value was 10, the “WEED CONTROL RATINGS SP” value is on record as 0 and the “WEED CONTROL RATINGS SJ” value worked out at 8.5. Besides, in series [2] (setting [6]), the “CROP TOLERANCE (Nihonbare) DW, dry weight relative to untreated check” value worked out at 112%; the “CROP TOLERANCE (Nihonbare) PH, plant height relative to untreated check” value is recorded as 102%; the “CROP TOLERANCE (Nihonbare) VA” value came out at 0%.
